Holding throughout (assay): relative viability (nuclei count vs DMSO), 5 days (fraction); higher = more cells survive
Compound in experiment [1]: C[C@]1(O)C[C@@H](c2nc(-c3ccc4ccc(-c5ccccc5)nc4c3)c3c(N)nccn32)C1 [Linsitinib] + O=C(CCCCCCC(=O)Nc1ccccc1)NO [Vorinostat] (partner 1 µM)
In short, it runs like this: (§1)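 The day after seeding in 1536-well plates, lung cancer cell lines were treated by pin tool with a single drug, or with a fixed anchor-drug dose together with five library-drug doses (not always all listed) in √10 steps. After 5 days, a combined fix-and-stain solution (final 0.05% Triton X-100, 1% formaldehyde, 1 ug/ml Hoechst) was added. Nuclei counted on 4× images gave relative viability as treated counts over vehicle counts, reported as the median of duplicate plates.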

Compound in experiment [2]: C[C@]1(O)C[C@@H](c2nc(-c3ccc4ccc(-c5ccccc5)nc4c3)c3c(N)nccn32)C1 [Linsitinib] + NC(=O)Nc1cc(-c2cccc(F)c2)sc1C(=O)N[C@H]1CCCNC1 [AZD7762] (partner 0.2 µM)
In short, it runs like this: as §1

Compound in experiment [3]: C[C@]1(O)C[C@@H](c2nc(-c3ccc4ccc(-c5ccccc5)nc4c3)c3c(N)nccn32)C1 [Linsitinib] + CC(=O)Nc1cccc(-n2c(=O)n(C3CC3)c(=O)c3c(Nc4ccc(I)cc4F)n(C)c(=O)c(C)c32)c1 [Trametinib] (partner 0.02 µM)
In short, it runs like this: as §1

Compound in experiment [4]: Cc1ccc(C(=O)N(CCCN)[C@@H](c2nc3cc(Cl)ccc3c(=O)n2Cc2ccccc2)C(C)C)cc1 [Ispinesib] + Cc1cc(Nc2cc(N3CCN(C)CC3)nc(Sc3ccc(NC(=O)C4CC4)cc3)n2)n[nH]1 [Tozasertib] (partner 0.1 µM)
The essentials:
as §1

Consider PC-3 [JPC-3], for which the relative viability was 0.78 in experiment [1] (first compound 0.01 µM); 0.784 in experiment [1] (first compound 0.03162 µM); 0.843 in experiment [1] (first compound 0.1 µM); 0.492 in experiment [1] (first compound 0.3162 µM); 0.571 in experiment [1] (first compound 1 µM); 0.784 in experiment [2] (first compound 0.01 µM). Besides, the relative viability in experiment [2] (first compound 0.03162 µM) turned out to be 0.758; in experiment [2] (first compound 0.1 µM), 0.846; in experiment [2] (first compound 0.3162 µM), 0.495; in experiment [2] (first compound 1 µM), 0.597; in experiment [3] (first compound 0.01 µM), 0.691; in experiment [3] (first compound 0.03162 µM) it was 0.766. The relative viability in experiment [3] (first compound 0.1 µM) was found to be 0.668; in experiment [3] (first compound 0.3162 µM), 0.591; in experiment [3] (first compound 1 µM), 0.545; in experiment [4] (first compound 0.001 µM), 0.899; in experiment [4] (first compound 0.003162 µM), 0.902; in experiment [4] (first compound 0.01 µM) it was 0.961. Further, the relative viability was found to be 1.01 in experiment [4] (first compound 0.03162 µM) and 0.59 in experiment [4] (first compound 0.1 µM).

In the case of PC-14, the relative viability in experiment [1] (first compound 0.01 µM) was found to be 0.668; in experiment [1] (first compound 0.03162 µM), 0.566; in experiment [1] (first compound 0.1 µM), 0.808; in experiment [1] (first compound 0.3162 µM), 0.517; in experiment [1] (first compound 1 µM), 0.52; in experiment [2] (first compound 0.01 µM), 0.296. Also, the relative viability was 0.307 in experiment [2] (first compound 0.03162 µM); 0.34 in experiment [2] (first compound 0.1 µM); 0.305 in experiment [2] (first compound 0.3162 µM); 0.27 in experiment [2] (first compound 1 µM); 0.684 in experiment [3] (first compound 0.01 µM); 0.681 in experiment [3] (first compound 0.03162 µM). The relative viability was found to be 0.618 in experiment [3] (first compound 0.1 µM); 0.699 in experiment [3] (first compound 0.3162 µM); 0.575 in experiment [3] (first compound 1 µM); 0.662 in experiment [4] (first compound 0.001 µM); 0.669 in experiment [4] (first compound 0.003162 µM); 0.624 in experiment [4] (first compound 0.01 µM). Besides, the relative viability was 0.433 in experiment [4] (first compound 0.03162 µM) and 0.0644 in experiment [4] (first compound 0.1 µM).

Regarding RERF-LC-KJ, the relative viability in experiment [1] (first compound 0.01 µM) is 0.552; in experiment [1] (first compound 0.03162 µM) it was 0.608; in experiment [1] (first compound 0.1 µM) it was 0.649; in experiment [1] (first compound 0.3162 µM), 0.293; in experiment [1] (first compound 1 µM), 0.455; in experiment [2] (first compound 0.01 µM) it was 0.254. The relative viability is 1.02 in experiment [2] (first compound 0.03162 µM); 0.905 in experiment [2] (first compound 0.1 µM); 0.419 in experiment [2] (first compound 0.3162 µM); 0.71 in experiment [2] (first compound 1 µM); 0.903 in experiment [3] (first compound 0.01 µM); 0.829 in experiment [3] (first compound 0.03162 µM). Also, the relative viability in experiment [3] (first compound 0.1 µM) stood at 0.87; in experiment [3] (first compound 0.3162 µM), 0.731; in experiment [3] (first compound 1 µM) it was 0.771; in experiment [4] (first compound 0.001 µM), 0.593; in experiment [4] (first compound 0.003162 µM), 0.412; in experiment [4] (first compound 0.01 µM), 0.329. Also, the relative viability in experiment [4] (first compound 0.03162 µM) turned out to be 0.262; in experiment [4] (first compound 0.1 µM), 0.354.

For the cell line SW 900, the relative viability is 0.627 in experiment [1] (first compound 0.01 µM); 0.436 in experiment [1] (first compound 0.03162 µM); 0.458 in experiment [1] (first compound 0.1 µM); 0.285 in experiment [1] (first compound 0.3162 µM); 0.272 in experiment [1] (first compound 1 µM); 0.921 in experiment [2] (first compound 0.01 µM). Also, the relative viability in experiment [2] (first compound 0.03162 µM) worked out at 0.64; in experiment [2] (first compound 0.1 µM), 0.629; in experiment [2] (first compound 0.3162 µM), 0.727; in experiment [2] (first compound 1 µM) it was 0.368; in experiment [3] (first compound 0.01 µM), 0.741; in experiment [3] (first compound 0.03162 µM) it was 0.986. Moreover, the relative viability in experiment [3] (first compound 0.1 µM) stood at 0.762; in experiment [3] (first compound 0.3162 µM) it was 0.72; in experiment [3] (first compound 1 µM) it was 0.674; in experiment [4] (first compound 0.001 µM), 0.502; in experiment [4] (first compound 0.003162 µM), 0.595; in experiment [4] (first compound 0.01 µM), 0.606. In addition, the relative viability was found to be 0.409 in experiment [4] (first compound 0.03162 µM) and 0.293 in experiment [4] (first compound 0.1 µM).
